Reference: EP4545542A1, “TRANSITION METAL CLUSTER COMPOUNDS FOR ELECTROCHEMICAL APPLICATIONS” (Litricity GmbH, priority 2023, dated 2025)

Assay: Solubility by the shake-flask method
Settings: Table 2: Solubility test of Fe28 clusters (acid linkers; Fe28+Tartaric acid with Ba, Ca, Mg counterions); conditions not given separately
Protocol: Solubility was determined by the shake-flask method (table 1) at room temperature (25 °C, pH = 5.7 in 0.3 M of Na2SO4).

Row | Solubility [mM] | Substance
1 | 84 | Ba10[Fe28(µ3-O)8(tart)16(OAc)24] ×H2O [Ba10Fe28]
2 | 2 | Ca10[Fe28(µ3-O)8(tart)16(OAc)24] ×H2O [Ca10Fe28]
3 | 1 | Mq10[Fe28(µ3-O)8(tart)16(OAc)24] ×H2O [Mg10Fe28]

Same assay, conditions: shake-flask method, room temperature (25 °C, pH = 5.7 in 0.3 M of Na2SO4); Table 1, influence of the cation

Row | Substance | Solubility [mM]
4 | K2Li18[Fe28(µ3-O)8(tart)16(OAc)24] ×H2O [Cluster K2Li28Fe28] | 88
5 | K20[Fe28(µ3-O)8(tart)16(OAc)24] ×H2O [Cluster K20Fe28] | 50
6 | Li2K18[Fe28(µ3-O)8(tart)16(OAc)24] ×H2O [Li2K18Fe28] | 48

Next, values leading:

Row | Solubility [mM] | Substance
7 | 83 | Li2Na18[Fe28(µ3-O)8(tart)16(OAc)24] ×H2O [Li2Na18Fe28]
8 | 70 | Na20[Fe28(µ3-O)8(tart)16(OAc)24] ×H2O [Na20Fe28]
